# Measured values: patent EP1935986B1, “Luminogenic and fluorogenic compounds and methods to detect molecules or conditions” (priority 2005, dated 2006)
# Assays:
# beta-glucuronidase (GUS) = molecular target: T1, beta-glucuronidase (GUS) (Homo sapiens, UniProt P08236); assay: Beta-glucuronidase assay with luciferin 6'-glucuronide (luminescent) or 4-methylumbelliferyl glucuronide (fluorescent); assay type: biochemical; settings: for limit-of-detection: GUS enzyme detected, luminescent vs fluorescent substrate; for luminescence, + GUS: pH 6.3, 15 minutes
# T1 construct: purchased Sigma-Aldrich
# T1 sequence (P08236 23-651): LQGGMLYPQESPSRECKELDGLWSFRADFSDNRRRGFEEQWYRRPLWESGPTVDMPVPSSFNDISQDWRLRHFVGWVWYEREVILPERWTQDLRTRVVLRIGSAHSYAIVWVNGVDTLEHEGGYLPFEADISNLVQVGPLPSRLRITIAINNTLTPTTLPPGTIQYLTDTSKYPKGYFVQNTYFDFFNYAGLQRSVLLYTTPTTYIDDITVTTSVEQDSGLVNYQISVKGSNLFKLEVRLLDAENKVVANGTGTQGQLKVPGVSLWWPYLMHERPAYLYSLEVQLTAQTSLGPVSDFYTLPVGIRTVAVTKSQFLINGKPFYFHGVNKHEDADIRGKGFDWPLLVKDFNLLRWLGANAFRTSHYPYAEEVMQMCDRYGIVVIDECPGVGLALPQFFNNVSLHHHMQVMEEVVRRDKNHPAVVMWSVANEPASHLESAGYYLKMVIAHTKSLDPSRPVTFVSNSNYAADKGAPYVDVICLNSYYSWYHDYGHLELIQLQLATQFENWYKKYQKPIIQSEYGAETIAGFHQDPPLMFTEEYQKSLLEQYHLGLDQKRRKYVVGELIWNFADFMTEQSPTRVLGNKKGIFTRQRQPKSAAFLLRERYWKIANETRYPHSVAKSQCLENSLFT
# Procedure: The source of the human enzyme was Sigma-Aldrich. GUS was incubated with the substrate in 50 mM MES, pH 6.3, for 15 minutes. […]
# luciferase = assay: No-enzyme control: activity of luciferase towards the luciferin derivative (background luminescence); settings: no GUS, 50 mM MES, pH 6.3
# Procedure: The reactions (Table 1) were assembled by first adding the water and 1 M BisTris solutions in individual 0.5 ml microfuge tubes, then adding the other components except for the GST #3 solution. Finally, the GST #3 (Figure 12) solution was added to the reactions, the resulting solution was mixed, and the time of addition noted. […]
# The GST #3 addition was performed last and the solutions were mixed immediately after addition of GST #3. […] After mixing, the light produced by the solution was measured using a Turner TD 20/20 luminometer.
# After assembly, the enzyme stock solutions were diluted 1:10 into 10 mM HEPES, pH 7.5 and the following additions were made to the reactions.
# A 5 µl sample of the luciferol DMF solution was added to each of the reactions above and a timer was started upon the addition of the first luciferol/DMF solution to reaction 1. All reactions were kept at room temperature.
# After incubating 5 minutes at room temperature, the light produced by these samples was measured using a Turner TD 20 luminometer.
# To initiate the conversions, 5 µl of luciferol solution was added to reactions […], 6-9, and 11-15, and 10 µl of luciferol was added to reactions 5 and 10 and the tubes mixed after that addition. Immediately after luciferol addition to reaction 1, a timer was started and the time of luciferol addition to the other tubes noted. After mixing, reaction 11-15 were placed at 37°C.
# After incubating 10 minutes at room temperature, the light produced by these samples was read using a Turner TD 20 luminometer (Table 18).
# To initiate Step 1, 45 µl of enzyme and buffer were added to each well.
# Solution A and Solution B are components of the NADPH Regeneration System (V9510, Promega Corp., Madison WI). […] Solution B contains 40 units/ml glucose-6-phosphate dehydrogenase in 5 mM citrate pH 5.5.
# QuantiLum Luciferase [1] = molecular target: T2, QuantiLum Luciferase (Photinus pyralis, UniProt P08659); assay: Firefly luciferase reaction with luciferin derivatives: light emission over time (with or without ATP, EDTA, coenzyme A, DTT); assay type: biochemical; set-up: unit not given here
# T2 construct: purchased Promega Corporation E170
# Procedure: Gel and HPLC stop solution. Solid EDTA (free acid) was placed in a beaker with water and the pH of the solution adjusted to pH 7.0. The solution was then adjusted in volume to produce a solution 400 mM in EDTA.
# Enzyme stop solution. A solution was prepared containing 20 mM Bis Tris, pH 6.5, 2 mM EDTA and 1mg/ml bovine serum albumin.
# Reaction buffer (2X). A solution was made containing 100 mM HEPES buffer, pH 8.0; 10 mM MgCl2.
# DTT stock. Solid DTT (dithiothreatol) was dissolved in water and then adjusted to pH 8.0 with solid sodium hydroxide. The solution was then adjusted in volume to produce a solution 1 M in DTT.
# (§1) After producing the solutions in Table 37, the volume of all reactions was adjusted to 990 µl with water. […] While the light reading was being taken, a 10 µl sample of the reaction was diluted to 500 µl with enzyme stop solution (cooled on ice to 4°C) mixed and placed on ice and a second sample of 90 µl of reaction was added to 10 µl of Gel/HPLC stop and the tube placed at -20°C. A timer was started with the start of the first reaction and the start times of the remaining reactions was noted. At 15, 30, 45 and 60 minutes, each reaction was sampled as above and the light produced in the luminometer tubes was measured. At 7 and 22 minutes, the light produced in the luminometer tubes was read, but the reactions were not sampled.
# as §1, with “40,” for “37,”
# QuantiLum Luciferase [2] = molecular target: T2, QuantiLum Luciferase; assay: Residual active luciferase after reaction with luciferin derivatives (Steady Glo); assay type: biochemical, firefly; set-up: unit not given here
# Procedure: as §1
# After all samples were taken, 50 µl of the sample diluted into enzyme stop solution was mixed with 50 µl of Steady Glo Luciferase Reagent (Promega) and the light produced measured after incubating at room temperature for 10 minutes. This measured the active luciferase in the initial reaction.
# as §1, with “40,” for “37,”
# T2 sequence (P08659 whole entry): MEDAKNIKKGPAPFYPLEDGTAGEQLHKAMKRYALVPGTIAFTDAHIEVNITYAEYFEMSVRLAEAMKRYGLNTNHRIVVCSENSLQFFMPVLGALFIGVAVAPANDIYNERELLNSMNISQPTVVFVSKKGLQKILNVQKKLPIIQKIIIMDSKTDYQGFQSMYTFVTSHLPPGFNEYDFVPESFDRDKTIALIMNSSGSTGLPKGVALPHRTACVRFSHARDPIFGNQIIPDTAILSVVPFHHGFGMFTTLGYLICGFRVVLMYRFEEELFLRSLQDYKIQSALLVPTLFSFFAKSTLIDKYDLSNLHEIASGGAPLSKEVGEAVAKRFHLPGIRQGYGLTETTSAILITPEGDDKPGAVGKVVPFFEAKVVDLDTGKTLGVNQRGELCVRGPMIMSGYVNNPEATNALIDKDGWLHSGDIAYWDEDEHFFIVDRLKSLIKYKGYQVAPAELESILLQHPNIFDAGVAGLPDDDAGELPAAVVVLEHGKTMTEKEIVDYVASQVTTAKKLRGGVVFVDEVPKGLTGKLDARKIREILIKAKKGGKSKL
structure (smiles),measurement,setting,value
O=C(O)[C@H]1O[C@@H](Oc2ccc3nc(C4=N[C@@H](C(=O)O)CS4)sc3c2)[C@H](O)[C@@H](O)[C@@H]1O [Luciferin 6'-glucuronide],limit-of-detection,beta-glucuronidase (GUS),0.28 ng/mL
same,"signal-to-noise, luminescence",beta-glucuronidase (GUS); [GUS] 4.3 ng/ml,68
same,"signal-to-noise, luminescence",beta-glucuronidase (GUS); [GUS] 8.7 ng/ml,133
same,"signal-to-noise, luminescence",beta-glucuronidase (GUS); [GUS] 34.7 ng/ml,649
same,"signal-to-noise, luminescence",beta-glucuronidase (GUS); [GUS] 69.4 ng/ml,1411
same,"signal-to-noise, luminescence",beta-glucuronidase (GUS); [GUS] 138.8 ng/ml,3104
same,"signal-to-noise, luminescence",beta-glucuronidase (GUS); [GUS] 277.5 ng/ml,7300
O=C(O)[C@H]1O[C@@H](Oc2ccc3nc(C4=N[C@@H](C(=O)O)CS4)sc3c2)[C@H](O)[C@@H](O)[C@@H]1O [drawing 190],"luminescence, no GUS",luciferase; [substrate] 3.5 uM,"1,108"
same,"luminescence, no GUS",luciferase; [substrate] 31.5 uM,"5,068"
same,"luminescence, no GUS",luciferase; [substrate] 94.4 uM,"13,091"
same,"luminescence, no GUS",luciferase; [substrate] 283.1 uM,"34,127"
same,"luminescence, no GUS",luciferase; [substrate] 849.3 uM,"91,975"
same,"luminescence, no GUS",luciferase; [substrate] 2548.0 uM,"209,219"
same,"luminescence, no GUS",luciferase; [substrate] […],"2,190"
same,"luminescence, + GUS","beta-glucuronidase (GUS); [substrate] 3.5 uM, 50 mM MES","46,210"
same,"luminescence, + GUS","beta-glucuronidase (GUS); [substrate] 31.5 uM, 50 mM MES","232,533"
same,"luminescence, + GUS","beta-glucuronidase (GUS); [substrate] 94.4 uM, 50 mM MES","423,619"
same,"luminescence, + GUS","beta-glucuronidase (GUS); [substrate] 283.1 uM, 50 mM MES","696,778"
same,"luminescence, + GUS","beta-glucuronidase (GUS); [substrate] 849.3 uM, 50 mM MES","994,977"
same,"luminescence, + GUS","beta-glucuronidase (GUS); [substrate] 2548.0 uM, 50 mM MES","1,335,243"
same,"luminescence, + GUS","beta-glucuronidase (GUS); [substrate] […], 50 mM MES","107,502"
O=C(O)[C@H]1CSC(c2nc3ccc(OCc4ccccc4)cc3s2)=N1 [Luc'in BE],Light reading at time,"QuantiLum Luciferase [1]; +Co A, 7 min",11.92
same,Light reading at time,"QuantiLum Luciferase [1]; +Co A, 22 min",9.941
same,Light reading at time,"QuantiLum Luciferase [1]; +CoA, 0 min",139.5
same,Light reading at time,"QuantiLum Luciferase [1]; +CoA, 15 min",10.99
same,Light reading at time,"QuantiLum Luciferase [1]; +CoA, 30 min",7.379
same,Light reading at time,"QuantiLum Luciferase [1]; +CoA, 45 min",7.284
same,Light reading at time,"QuantiLum Luciferase [1]; +CoA, 60 min",6.433
same,Light reading at time,"QuantiLum Luciferase [1]; +DTT, 0 min",948
same,Light reading at time,"QuantiLum Luciferase [1]; +DTT, 7 min",532.8
same,Light reading at time,"QuantiLum Luciferase [1]; +DTT, 15 min",417
same,Light reading at time,"QuantiLum Luciferase [1]; +DTT, 22 min",369.5
same,Light reading at time,"QuantiLum Luciferase [1]; +DTT, 30 min",331.6
same,Light reading at time,"QuantiLum Luciferase [1]; +DTT, 45 min",273.5
same,Light reading at time,"QuantiLum Luciferase [1]; +DTT, 60 min",226.9
same,Light reading at time,"QuantiLum Luciferase [1]; No addition, 0 min",135.2
same,Light reading at time,"QuantiLum Luciferase [1]; No addition, 7 min",22.61
same,Light reading at time,"QuantiLum Luciferase [1]; No addition, 15 min",12.79
same,Light reading at time,"QuantiLum Luciferase [1]; No addition, 22 min",9.256
same,Light reading at time,"QuantiLum Luciferase [1]; No addition, 30 min",6.928
same,Light reading at time,"QuantiLum Luciferase [1]; No addition, 45 min",4.879
same,Light reading at time,"QuantiLum Luciferase [1]; No addition, 60 min",3.311
same,Light reading at time,"QuantiLum Luciferase [1]; w/o ATP, 0 min",0.015
same,Light reading at time,"QuantiLum Luciferase [1]; w/o ATP, 7 min",0
same,Light reading at time,"QuantiLum Luciferase [1]; w/o ATP, 15 min",0.008
same,Light reading at time,"QuantiLum Luciferase [1]; w/o ATP, 22 min",0.005
same,Light reading at time,"QuantiLum Luciferase [1]; w/o ATP, 30 min",0
same,Light reading at time,"QuantiLum Luciferase [1]; w/o ATP, 45 min",0
same,Light reading at time,"QuantiLum Luciferase [1]; w/o ATP, 60 min",0.01
same,Light reading from residual active enzyme at time,"QuantiLum Luciferase [2]; +CoA, 0 min",186.7
same,Light reading from residual active enzyme at time,"QuantiLum Luciferase [2]; +CoA, 15 min",179.6
same,Light reading from residual active enzyme at time,"QuantiLum Luciferase [2]; +CoA, 30 min",179.4
same,Light reading from residual active enzyme at time,"QuantiLum Luciferase [2]; +CoA, 45 min",157.9
same,Light reading from residual active enzyme at time,"QuantiLum Luciferase [2]; +CoA, 60 min",161.8
same,Light reading from residual active enzyme at time,"QuantiLum Luciferase [2]; No addition, 0 min",129.7
same,Light reading from residual active enzyme at time,"QuantiLum Luciferase [2]; No addition, 15 min",69.9
same,Light reading from residual active enzyme at time,"QuantiLum Luciferase [2]; No addition, 30 min",47.31
same,Light reading from residual active enzyme at time,"QuantiLum Luciferase [2]; No addition, 45 min",37.94
same,Light reading from residual active enzyme at time,"QuantiLum Luciferase [2]; No addition, 60 min",29.08
same,Light reading from residual active enzyme at time,"QuantiLum Luciferase [2]; w/o ATP, 0 min",168.3
same,Light reading from residual active enzyme at time,"QuantiLum Luciferase [2]; w/o ATP, 15 min",174.1
same,Light reading from residual active enzyme at time,"QuantiLum Luciferase [2]; w/o ATP, 30 min",171.7
same,Light reading from residual active enzyme at time,"QuantiLum Luciferase [2]; w/o ATP, 45 min",172.9
same,Light reading from residual active enzyme at time,"QuantiLum Luciferase [2]; w/o ATP, 60 min",164
"Cc1cc(=O)oc2cc(O[C@@H]3O[C@H](C(=O)O)[C@@H](O)[C@H](O)[C@H]3O)ccc12 [4-methylumbelliferyl glucuronide, reference compound]",Km,"beta-glucuronidase (GUS); 50 mM MES, pH 6.3",59 ± 8 µM
same,limit-of-detection,beta-glucuronidase (GUS),2.01 ng/mL
